Structures are written as SMILES. Where two headings read alike, the source gives them in different places.

Data set [1] is described as follows: log P by HPLC on a reversed-phase column (C 18), EEC Directive 79/831 Annex V.A8. Format: physicochemical. Particulars: for logP: HPLC on reversed-phase column (C 18), 40° C., linear gradient 10% to 90% acetonitrile. As for the experimental part: In table 1, the log P values were determined in accordance with EEC Directive 79/831 Annex V.A8 by HPLC (High Performance Liquid Chromatography) on a reversed-phase column (C 18), using the method described below: Temperature: 40° C.; Mobile phases: 0.1% aqueous formic acid and acetonitrile; linear gradient from 10% acetonitrile to 90% acetonitrile. Calibration was carried out using unbranched alkan-2-ones (comprising 3 to 16 carbon atoms) with known log P values (determination of the log P values by the retention times using linear interpolation between two successive alkanones). lambda-max-values were determined using UV-spectra from 200 nm to 400 nm and the peak values of the chromatographic signals.

The next data set deals with Puccinia recondita. The data set is described as follows: In vivo preventive test on Puccinia recondita (brown rust on wheat). Particulars: wheat plants, 12 days after contamination. On the procedure: In Vivo Preventive Test on Puccinia recondita (Brown Rust on Wheat) […] Wheat plants (“Scipion” variety), sown in starter cups on a 50/50 peat soil pozzolana substrate and grown at 22° C., are treated at the 1 leaf stage (10 cm height) by spraying with the active ingredient prepared as described above. Plants, used as controls, are treated with the mixture of acetone/tween/DMSO/water not containing the active material. After 24 hours, the plants are contaminated by spraying the leaves with an aqueous suspension of Puccinia recondita spores (100 000 spores per mL). The spores are collected from an infected plant and are suspended in water containing 2.5 mL/L of Tween 80 at 10%. […] Grading (% of efficacy) is carried out 12 days after the contamination, in comparison with the control plants.

The test system of a further data set is Septoria tritici. The data set is described as follows: In vivo preventive test on Septoria tritici (wheat). As to conditions: wheat plants, 24 days after contamination. On the procedure: In Vivo Preventive Test on Septoria tritici (Wheat) […] Wheat plants (“Scipion” variety), sown in starter cups on a 50/50 peat soil pozzolana substrate and grown at 22° C., are treated at the 1 leaf stage (10 cm height) by spraying with the active ingredient prepared as described above. Plants, used as controls, are treated with the mixture of acetone/tween/DMSO/water not containing the active material. After 24 hours, the plants are contaminated by spraying the leaves with an aqueous suspension of cryopreserved Septoria tritici spores (500 000 spores per mL). The contaminated wheat plants are incubated for 72 hours at 18° C. and at 100% relative humidity, and then for 21 days at 90% relative humidity. Grading (% of efficacy) is carried out 24 days after the contamination, in comparison with the control plants.

For the next data set, the system named is Sphaerotheca fuliginea. The experiment in a line: In vivo preventive test on Sphaerotheca fuliginea (powdery mildew on cucurbits). As to conditions: gherkin plants, 12 days after contamination. As for the experimental part: In Vivo Preventive Test on Sphaerotheca fuliginea (Powdery Mildew on Cucurbits) […] Gherkin plants (“Vert petit de Paris” variety), sown in starter cups on a 50/50 peat soil-pozzolana substrate and grown at 24° C., are treated at the Z11 cotyledon stage by spraying with the active ingredient prepared as described above. Plants, used as controls, are treated with the mixture of acetone/tween/DMSO/water not containing the active material. After 24 hours, the plants are contaminated by spraying the cotyledons with an aqueous suspension of Sphaerotheca fuliginea spores (100 000 spores per mL). The spores are collected from infected plants. […] Grading (% of efficacy) is carried out 12 days after the contamination, in comparison with the control plants.

The test system of the next data set is Uromyces appendiculatus. The experiment in a line: In vivo preventive test on Uromyces appendiculatus (bean rust). As to conditions: bean plants, 11 days after contamination. As for the experimental part: In Vivo Preventive Test on Uromyces appendiculatus (Bean Rust) […] Bean plants (“Saxa” variety), sown in starter cups on a 50/50 peat soil pozzolana substrate and grown at 24° C., are treated at the 2 leaf stage (9 cm height) by spraying with the active ingredient prepared as described above. Plants, used as controls, are treated with the mixture of acetone/tween/DMSO/water not containing the active material. After 24 hours, the plants are contaminated by spraying the leaves with an aqueous suspension of Uromyces appendiculatus spores (150 000 spores per mL). The spores are collected from infected plants and are suspended in water containing 2.5 mL/L of Tween 80 at 10%. […] Grading (% of efficacy) is carried out 11 days after the contamination, in comparison with the control plants.

The mark [2] stands for this setting: 0.1% aqueous formic acid and acetonitrile.
[3] abbreviates: Podosphaera fuliginea, 288 h, 500 ppm of active ingredient, read-out: Efficacy.
The mark [4] stands for this setting: reversed-phase HPLC column (C 18), HPLC, C 18, 40° C., 0.1% aqueous formic acid and acetonitrile, read-out: logP.

For `CC1CC1N(Cc1ccccc1-c1ccsc1)C(=O)c1c(C(F)F)nn(C)c1Cl` (stereo not drawn) [I.88], the logP in data set [1] (setting [2]) was found to be 3.92. Further, the values for the Efficacy with Puccinia recondita (500 ppm of active ingredient) and with Septoria tritici (500 ppm of active ingredient) were 94% and 79%, respectively.

As for `CC1OCC1c1ccccc1CN(C(=O)c1c(C(F)F)nn(C)c1Cl)C1CC1` (stereo not drawn) [I.16], the logP in data set [1] (setting [2]) was found to be 2.08. The compound further had an Efficacy with Septoria tritici (500 ppm of active ingredient) of 90%. On to `Cn1cc(C(=O)N(Cc2ccccc2-c2cccc(Cl)n2)C2CC2)c(C(F)F)n1` [CMP4, N-[2-(6-chloropyridin-2-yl)benzyl]-N-cyclopropyl-3-(difluoromethyl)-1-methyl-1H-pyrazole-4-carboxamide, reference compound], for which the pest or weed control at 500 ppm with Sphaerotheca fuliginea (setting [3]) was below 40%. On to `Cc1ccc(-c2csc3ccccc23)c(CN(C(=O)c2c(C(F)F)nn(C)c2F)C2CC2)c1` [I.160], for which the Efficacy with Sphaerotheca fuliginea (100 ppm of active ingredient) came out at 98%; in the data set with Uromyces appendiculatus (100 ppm of active ingredient) it was 77%; in the data set with Septoria tritici (100 ppm of active ingredient) it was 71%. In data set [1] (setting [2]), the logP is listed as 4.64.

In the data set on Uromyces appendiculatus (500 ppm of active ingredient), `Cn1nc(C(F)F)c(C(=O)N(Cc2cc(Cl)ccc2-c2cccs2)C2CC2)c1Cl` [I.77] gave an Efficacy of 84%. Besides, in data set [1] (setting [2]), the log partition coefficient (logP) is given as 4.29.

Consider `CC1CC1N(Cc1ccccc1-c1ccsc1)C(=O)c1cn(C)nc1C(F)F` (stereo not drawn) [I.87], for which the Efficacy in the data set on Uromyces appendiculatus (500 ppm of active ingredient) is given as 84%; in the data set on Puccinia recondita (500 ppm of active ingredient), 75%. Also, in data set [1] (setting [2]), the logP was found to be 3.48.

In data set [1] (setting [2]), `Cc1ccc(-c2ccoc2)c(CN(C(=O)c2c(C(F)F)nn(C)c2F)C2CC2)c1` [I.39] had a log partition coefficient (logP) of 3.55. Moreover, the figures for the Efficacy in the data set with Puccinia recondita (100 ppm of active ingredient) and in the data set on Septoria tritici (100 ppm of active ingredient) were 88% and 80%, respectively. Regarding `Cn1nc(C(F)F)c(C(=O)N(Cc2ccccc2-c2cccc(Cl)n2)C2CC2)c1Cl` [CMP5, 5-chloro-N-[2-(6-chloropyridin-2-yl)benzyl]-N-cyclopropyl-3-(difluoromethyl)-1-methyl-1H-pyrazole-4-carboxamide, reference compound], in the data set on Sphaerotheca fuliginea (setting [3]), the pest or weed control at 500 ppm is below 40%. For `Cc1nn(C)c(C)c1-c1ccc(Cl)cc1CN(C(=O)c1c(C(F)F)nn(C)c1F)C1CC1` [I.113], the Efficacy with Sphaerotheca fuliginea (500 ppm of active ingredient) was 98%; in the data set with Septoria tritici (500 ppm of active ingredient), 70%. The compound also showed a logP in data set [1] (setting [2]) of 2.98.

The compound `Cn1nc(C(F)F)c(C(=O)N(Cc2cc(-c3ccsc3)ccc2Cl)C2CC2)c1Cl` [I.94] returned a logP in data set [1] (setting [2]) of 4.16. For `Clc1ccc(-c2cccs2)cc1CNC1CC1` [IIb.2, N-[2-chloro-5-(2-thienyl)benzyl]cyclopropanamine], the chromatographic logP in data set [1] (setting [4]) came to 1.29. As for `CC(C)c1ccc(Cl)cc1CN` [1-(5-chloro-2-isopropylphenyl)methanamine], the chromatographic logP in data set [1] (setting [4]) is 1.2. In data set [1] (setting [2]), `Cc1nc(C(F)F)c(C(=O)N(Cc2cc(-c3ccco3)ccc2Cl)C2CC2)s1` [I.46] registered a logP of 3.99. `Cc1ccc(-c2ccsc2Cl)c(CN(C(=O)c2c(C(F)F)nn(C)c2Cl)C2CC2)c1` [I.148] yielded a logP in data set [1] (setting [2]) of 4.44. Take `Cn1nc(C(F)F)c(C(=O)N(Cc2ccccc2-c2cccc(Cl)n2)C2CC2)c1F` [CMP3, N-[2-(6-chloropyridin-2-yl)benzyl]-N-cyclopropyl-3-(difluoromethyl)-5-fluoro-1-methyl-1H-pyrazole-4-carboxamide, reference compound]: the pest or weed control at 500 ppm with Sphaerotheca fuliginea (setting [3]) was below 40%. `CC(C)c1ccc(Cl)cc1CNC(=O)c1c(C(F)F)nn(C)c1F` [Xa.1, N-(5-chloro-2-isopropylbenzyl)-3-(difluoromethyl)-5-fluoro-1-methyl-1H-pyrazole-4-carboxamide] yielded a chromatographic logP in data set [1] (logP) of 3.46. For `O=C(c1ccsc1I)N(Cc1cc(-c2ccco2)ccc1Cl)C1CC1` [I.41], in data set [1] (setting [2]), the logP came out at 4.61. For `Cn1nc(C(F)F)c(C(=S)N(Cc2cc(Cl)ccc2-c2cccs2)C2CC2)c1Cl` [I.79], the Efficacy is 100% in the data set with Uromyces appendiculatus (500 ppm of active ingredient) and 75% in the data set on Septoria tritici (500 ppm of active ingredient). Moreover, the logP in data set [1] (setting [2]) worked out at 4.92.

In turn, `Cc1ccc(-c2csc3ccccc23)c(CN(C(=O)c2c(C(F)F)nn(C)c2F)C2CC2C)c1` (stereo not drawn) [I.166] came in with a logP in data set [1] (setting [2]) of 4.92.

Turning to `Cc1cscc1-c1ccc(C(C)C)c(CN(C(=O)c2c(C(F)F)nn(C)c2F)C2CC2)c1` [I.110], the logP in data set [1] (setting [2]) turned out to be 4.72. Still for that read-out and setting: in the case of `Cn1nc(C(F)F)c(C(=O)N(Cc2ccccc2C2COC2)C2CC2)c1Cl` [I.2] it was 1.56; in that of `Cc1nn(C)c(C)c1-c1ccc(C(C)C)c(CN(C(=O)c2c(C(F)F)nn(C)c2F)C2CC2)c1` [I.118], 3.23; in that of `Cc1ccc(-c2ccoc2)c(CN(C(=O)c2cn(C)nc2C(F)F)C2CC2)c1` [I.38], 3.19. `COc1ccsc1-c1ccc(C)cc1CN(C(=O)c1c(C(F)F)nn(C)c1Cl)C1CC1` [I.126]: the logP in data set [1] (setting [2]) worked out at 3.99. As for `Cn1cc(C(=O)N(Cc2cc(Cl)ccc2-c2cccs2)C2CC2)c(C(F)F)n1` [I.71], the figures for the Efficacy with Sphaerotheca fuliginea (500 ppm of active ingredient), in the data set with Uromyces appendiculatus (500 ppm of active ingredient) and in the data set on Septoria tritici (500 ppm of active ingredient) were 98%, 81% and 90%, respectively. The compound further had a logP in data set [1] (setting [2]) of 3.69. Take `Cc1nn(C)c(C)c1-c1ccc(F)cc1CN(C(=O)c1c(C(F)F)nn(C)c1F)C1CC1` [I.112]: the Efficacy with Sphaerotheca fuliginea (500 ppm of active ingredient) is 100%; in the data set on Puccinia recondita (500 ppm of active ingredient), 83%; in the data set on Septoria tritici (500 ppm of active ingredient) it was 100%. Besides, the logP in data set [1] (setting [2]) is reported as 2.66. In data set [1] (setting [2]), `Cn1nc(C(F)F)c(C(=O)N(Cc2cc(Cl)ccc2C23CCCCCC2O3)C2CC2)c1F` (stereo not drawn) [I.25] gave a logP of 4.44.

`Cc1ccc(-c2ccsc2Cl)c(CN(C(=O)c2cn(C)nc2C(F)F)C2CC2)c1` [I.149] displayed a logP in data set [1] (setting [2]) of 3.85. `O=C(c1ccsc1I)N(Cc1cc(-c2ccsc2)ccc1Cl)C1CC1` [I.89] came in with a lipophilicity (logP) in data set [1] (setting [2]) of 4.78. The same measure, in the same setting: in the case of `Cc1cc(C(=O)N(Cc2cc(-c3ccc(Cl)s3)ccc2Cl)C2CC2)c(C)o1` [I.152] it was 5.54. On to `O=C(c1ccsc1I)N(Cc1cc(-c2cccs2)ccc1Cl)C1CC1` [I.91], for which, in data set [1] (setting [2]), the logP was found to be 4.91.

For the compound `Cc1ccc(-c2cnn(C)c2)c(CN(C(=O)c2c(C(F)F)nn(C)c2F)C2CC2)c1` [I.58], the logP in data set [1] (setting [2]) came out at 2.63. Further, the Efficacy with Septoria tritici (100 ppm of active ingredient) came out at 97%.

In turn, `O=C(c1ccsc1I)N(Cc1cc(Cl)ccc1-c1ccc(Cl)s1)C1CC1` [I.147] yielded a logP in data set [1] (setting [2]) of 5.68. For the compound `COc1ccsc1-c1ccc(C)cc1CN(C(=O)c1c(C(F)F)nn(C)c1Cl)C1CC1C` (stereo not drawn) [I.128], in data set [1] (setting [2]), the logP is recorded as 4.41. As for `Cn1cc(C(=O)N(Cc2ccc(-c3cccnc3)cc2Cl)C2CC2)c(C(F)F)n1` [CMP1, N-[2-chloro-4-(pyridin-3-yl)benzyl]-N-cyclopropyl-3-(difluoromethyl)-1-methyl-1H-pyrazole-4-carboxamide, reference compound], the pest or weed control at 100 ppm in the data set on Sphaerotheca fuliginea (Podosphaera fuliginea, 288 h, 100 ppm of active ingredient, read-out: Efficacy) was 0%. `Cc1ccc(-c2ccn(C)c2)c(CN(C(=O)c2c(C(F)F)nn(C)c2Cl)C2CC2)c1` [I.53] gave a logP in data set [1] (setting [2]) of 3.69. On to `Cn1nc(C(F)F)c(C(=O)N(Cc2cc(-c3cccs3)ccc2Cl)C2CC2)c1Cl` [I.85], for which the logP in data set [1] (setting [2]) is on record as 4.29. For `c1ccc(-c2ccsc2)c(CNC2CC2)c1` [IIa.3, N-[2-(3-thienyl)benzyl]cyclopropanamine], the chromatographic logP in data set [1] (setting [4]) was found to be 1.34.

The record behind these values is US10125126B2, “N-cycloalkyl-N-[(heterocyclylphenyl)methylene]-(thio)carboxamide derivatives” (BAYER CROPSCIENCE AG, priority 2012, dated 2018).
